Measured values as given in article PMC5605781 (Journal of medicinal chemistry, 2017).
pEC50, pIC50: −log10 of the molar value.

Experiments:
HIV-1 = settings: antiviral activity; cited from earlier work
HIV-1NL4-3 = assay: Antiviral p24 assay in MT-4 cells, wild-type HIV-1NL4-3; type: cell-based; settings: wild-type HIV-1NL4-3, compared to DRV
[1] = system: seven HIV-1 variants selected in vitro with SQV, APV, LPV, IDV, NFV, ATV, TPV; assay: microbe, parasite or virus in culture; type: cell-based; settings: Human immunodeficiency virus 1, read-out: IC50 values, range over variants

SMILES | pEC50 (HIV-1) | factor of more potent block of replication compared to DRV (HIV-1NL4-3) | pIC50 [1]
COc1ccc(S(=O)(=O)N(CC(C)C)C[C@@H](O)[C@H](Cc2ccccc2)NC(=O)O[C@H]2CO[C@H]3OCC[C@H]32)cc1 [Inhibitor 3] | 9.30 | – | –
CC(C)CN(C[C@@H](O)[C@H](Cc1ccccc1)NC(=O)O[C@H]1C2CO[C@H]3OCC1C3C2)S(=O)(=O)c1ccc2nc(NC3CC3)sc2c1 (stereo partly drawn) [Inhibitor 5, (3S,7aS,8S)-Hexahydro-4H-3,5-methanofuro[2,3-b]pyran-8-yl ((2S,3R)-4-((2-(cyclopropylamino)-N-isobutylbenzo[d]thiazole)-6-sulfonamido)-3-hydroxy-1-phenylbutan-2-yl)carbamate] | – | 10 | 9.57 to 11.59
